Results published in patent publication US20260183275A1, “SUBSTITUTED QUINOLONE COMPOUNDS USEFUL AS INHIBITORS OF TLR9” (Bristol-Myers Squibb Company, priority 2022, published 2026).

Experiments:
Format in all cases: cell-based
human TLR7 = molecular target: T1, human TLR7 (Homo sapiens, UniProt Q9NYK1); assay: TLR7 inhibition reporter assay (HEK-Blue cells, SEAP reporter); details: HEK-Blue cells overexpressing human TLR7; stimulated with gardiquimod 7.5 μM; SEAP read after 22 hour; dose range 0.05 nM-50 μM
T1 construct: host or cells: HEK-Blue cells
T1 sequence (Q9NYK1 27-1049): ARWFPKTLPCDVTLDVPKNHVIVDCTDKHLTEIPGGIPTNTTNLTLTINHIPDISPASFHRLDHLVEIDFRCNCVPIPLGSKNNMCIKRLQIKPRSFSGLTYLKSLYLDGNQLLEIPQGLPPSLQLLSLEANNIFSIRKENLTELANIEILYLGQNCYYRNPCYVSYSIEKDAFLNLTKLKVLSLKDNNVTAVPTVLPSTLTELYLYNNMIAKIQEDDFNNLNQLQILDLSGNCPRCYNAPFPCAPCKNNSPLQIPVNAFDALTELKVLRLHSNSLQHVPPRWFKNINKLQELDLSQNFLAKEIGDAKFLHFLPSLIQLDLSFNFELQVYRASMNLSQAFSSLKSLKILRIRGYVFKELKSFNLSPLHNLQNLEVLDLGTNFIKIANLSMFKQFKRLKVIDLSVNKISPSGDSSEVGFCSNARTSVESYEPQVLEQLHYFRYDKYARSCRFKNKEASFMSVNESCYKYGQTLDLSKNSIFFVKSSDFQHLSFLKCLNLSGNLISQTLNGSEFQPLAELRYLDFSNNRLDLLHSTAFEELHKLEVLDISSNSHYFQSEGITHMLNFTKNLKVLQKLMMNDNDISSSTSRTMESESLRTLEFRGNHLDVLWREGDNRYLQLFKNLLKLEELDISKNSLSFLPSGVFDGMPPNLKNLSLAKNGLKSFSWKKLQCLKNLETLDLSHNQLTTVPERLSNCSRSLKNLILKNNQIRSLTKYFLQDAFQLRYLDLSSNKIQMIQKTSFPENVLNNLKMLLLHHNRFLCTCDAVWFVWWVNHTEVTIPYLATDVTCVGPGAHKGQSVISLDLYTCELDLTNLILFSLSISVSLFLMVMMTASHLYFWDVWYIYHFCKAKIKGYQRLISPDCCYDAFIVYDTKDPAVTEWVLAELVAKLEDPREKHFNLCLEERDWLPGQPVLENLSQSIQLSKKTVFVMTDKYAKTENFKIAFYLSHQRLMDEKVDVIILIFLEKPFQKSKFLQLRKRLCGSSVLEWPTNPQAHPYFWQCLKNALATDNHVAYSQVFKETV
Procedure, shortened: (§1)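 HEK-Blue cells with NF-κB/AP-1-driven SEAP pre-treated 30 min with compounds (0.05 nM-50 μM), then stimulated with gardiquimod 7.5 μM (TLR7), R848 15.9 μM (TLR8) or ODN2006 5 nM (TLR9). SEAP read after 22 h at 37° C; % inhibition relative to agonist+DMSO and reference-inhibitor wells.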

human TLR8 = molecular target: T2, human TLR8 (Homo sapiens, UniProt Q9NR97); assay: TLR8 inhibition reporter assay (HEK-Blue cells, SEAP reporter); details: HEK-Blue cells overexpressing human TLR8; stimulated with R848 15.9 μM; SEAP read after 22 hour; dose range 0.05 nM-50 μM
T2 construct: host or cells: HEK-Blue cells
T2 sequence (Q9NR97 27-1041): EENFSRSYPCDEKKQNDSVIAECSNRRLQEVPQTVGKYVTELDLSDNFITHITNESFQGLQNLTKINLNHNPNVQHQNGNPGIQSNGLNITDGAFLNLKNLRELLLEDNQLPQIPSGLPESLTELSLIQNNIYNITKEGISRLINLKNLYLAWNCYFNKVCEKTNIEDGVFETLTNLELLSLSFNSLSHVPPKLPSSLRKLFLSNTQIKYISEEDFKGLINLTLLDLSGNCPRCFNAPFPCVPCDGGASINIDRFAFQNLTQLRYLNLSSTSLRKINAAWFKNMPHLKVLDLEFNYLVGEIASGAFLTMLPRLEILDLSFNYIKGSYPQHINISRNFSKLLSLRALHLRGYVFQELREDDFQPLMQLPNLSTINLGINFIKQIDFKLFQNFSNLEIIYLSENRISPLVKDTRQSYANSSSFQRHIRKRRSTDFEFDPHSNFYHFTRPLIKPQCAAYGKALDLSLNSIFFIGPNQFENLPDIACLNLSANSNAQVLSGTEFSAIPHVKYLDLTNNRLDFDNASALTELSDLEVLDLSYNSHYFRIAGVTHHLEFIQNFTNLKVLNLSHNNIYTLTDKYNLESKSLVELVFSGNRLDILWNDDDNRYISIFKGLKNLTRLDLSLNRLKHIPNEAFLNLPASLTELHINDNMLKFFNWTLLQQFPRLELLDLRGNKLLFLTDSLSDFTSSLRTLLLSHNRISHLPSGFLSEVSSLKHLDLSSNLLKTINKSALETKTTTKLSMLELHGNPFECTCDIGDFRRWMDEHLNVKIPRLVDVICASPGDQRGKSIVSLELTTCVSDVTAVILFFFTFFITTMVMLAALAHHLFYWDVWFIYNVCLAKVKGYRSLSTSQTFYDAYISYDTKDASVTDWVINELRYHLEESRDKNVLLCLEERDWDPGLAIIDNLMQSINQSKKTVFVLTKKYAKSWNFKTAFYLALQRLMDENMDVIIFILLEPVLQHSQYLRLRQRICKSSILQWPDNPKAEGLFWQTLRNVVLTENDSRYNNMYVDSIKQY
Procedure, shortened: as §1

human TLR9 = molecular target: T3, human TLR9 (Homo sapiens, UniProt Q9NR96); assay: TLR9 inhibition reporter assay (HEK-Blue cells, SEAP reporter); details: HEK-Blue cells overexpressing human TLR9; stimulated with ODN2006 5 nM; SEAP read after 22 hour; dose range 0.05 nM-50 μM
T3 construct: host or cells: HEK-Blue cells
T3 sequence (Q9NR96 26-1032): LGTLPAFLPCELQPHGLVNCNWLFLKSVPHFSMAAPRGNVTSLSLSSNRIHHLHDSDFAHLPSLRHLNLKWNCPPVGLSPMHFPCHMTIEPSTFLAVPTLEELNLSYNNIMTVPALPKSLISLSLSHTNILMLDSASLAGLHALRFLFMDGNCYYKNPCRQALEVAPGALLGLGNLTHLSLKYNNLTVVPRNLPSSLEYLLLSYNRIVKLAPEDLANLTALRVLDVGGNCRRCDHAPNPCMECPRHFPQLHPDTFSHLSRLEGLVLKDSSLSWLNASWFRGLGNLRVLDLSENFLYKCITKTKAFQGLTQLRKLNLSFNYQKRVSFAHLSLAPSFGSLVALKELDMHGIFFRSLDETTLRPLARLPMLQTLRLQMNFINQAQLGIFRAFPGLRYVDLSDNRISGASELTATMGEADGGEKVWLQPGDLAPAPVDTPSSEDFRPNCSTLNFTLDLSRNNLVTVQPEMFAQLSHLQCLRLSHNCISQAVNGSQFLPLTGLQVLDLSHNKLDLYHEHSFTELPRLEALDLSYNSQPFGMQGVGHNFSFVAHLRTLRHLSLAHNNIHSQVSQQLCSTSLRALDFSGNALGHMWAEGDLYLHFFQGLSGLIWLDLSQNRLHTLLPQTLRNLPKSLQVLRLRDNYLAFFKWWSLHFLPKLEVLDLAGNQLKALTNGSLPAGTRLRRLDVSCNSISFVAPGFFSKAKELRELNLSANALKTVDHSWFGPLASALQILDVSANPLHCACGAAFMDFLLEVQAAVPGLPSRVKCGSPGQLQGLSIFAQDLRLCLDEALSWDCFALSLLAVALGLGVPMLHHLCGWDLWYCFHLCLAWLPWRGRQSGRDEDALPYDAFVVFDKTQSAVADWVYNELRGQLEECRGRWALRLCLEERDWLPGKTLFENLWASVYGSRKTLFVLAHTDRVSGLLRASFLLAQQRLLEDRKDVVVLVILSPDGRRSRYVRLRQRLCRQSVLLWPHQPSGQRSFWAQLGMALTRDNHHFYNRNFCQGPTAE
Procedure, shortened: as §1

Row | SMILES | IC50 (human TLR7) [µM] | IC50 (human TLR8) [µM] | IC50 (human TLR9) [µM]
1 | CC(C)N1CCN(c2ccc(-c3ccc4[nH]c(=O)c(-c5ccccc5Cl)cc4c3)cc2)CC1 [Example 44, 3-(2-chlorophenyl)-6-{4-[4-(propan-2-yl)piperazin-1-yl]phenyl}-1,2-dihydroquinolin-2-one] | 5.61 | ≥ 50 | 0.701
2 | CC(C)N1CCN(c2ccc(-c3ccc4[nH]c(=O)c(-c5cccc(C(F)(F)F)c5)cc4c3)cc2)CC1 [Example 45, 6-{4-[4-(propan-2-yl)piperazin-1-yl]phenyl}-3-[3-(trifluoromethyl)phenyl]-1,2-dihydroquinolin-2-one] | ≥ 50 | ≥ 50 | 0.734
3 | CC(C)N1CCN(c2ccc(-c3ccc4[nH]c(=O)c(-c5cccc(OC(F)(F)F)c5)cc4c3)cc2)CC1 [Example 46, 6-{4-[4-(propan-2-yl)piperazin-1-yl]phenyl}-3-[3-(trifluoromethoxy)phenyl]-1,2-dihydroquinolin-2-one] | ≥ 50 | ≥ 50 | 0.781
4 | CC(C)N1CCN(c2ccc(-c3ccc4[nH]c(=O)c(-c5cccc(F)c5)cc4c3)cc2)CC1 [Example 47, 3-(3-fluorophenyl)-6-{4-[4-(propan-2-yl)piperazin-1-yl]phenyl}-1,2-dihydroquinolin-2-one] | 8.62 | ≥ 50 | 0.857
5 | CC(C)N1CCN(c2ccc(-c3ccc4c(c3)cc(-c3ccc(NC(=O)c5ccccn5)cc3)c(=O)n4C)cc2)CC1 [Example 50, N-[4-(1-methyl-2-oxo-6-{4-[4-(propan-2-yl)piperazin-1-yl]phenyl}-1,2-dihydroquinolin-3-yl)phenyl]pyridine-2-carboxamide] | 15.6 | ≥ 50 | 0.242
6 | CCC(=O)Nc1ccc(-c2cc3cc(-c4ccc(N5CCN(C(C)C)CC5)cc4)ccc3[nH]c2=O)cc1 [Example 52, N-[4-(2-oxo-6-{4-[4-(propan-2-yl)piperazin-1-yl]phenyl}-1,2-dihydroquinolin-3-yl)phenyl]propanamide] | 15.1 | ≥ 50 | 0.243
7 | CNC(=O)c1ccc(-c2cc3cc(-c4ccc(N5CCN(C(C)C)CC5)cc4)ccc3[nH]c2=O)cc1 [Example 54, N-methyl-4-(2-oxo-6-{4-[4-(propan-2-yl)piperazin-1-yl]phenyl}-1,2-dihydroquinolin-3-yl)benzamide] | 13 | ≥ 50 | 0.379
8 | CC(C)N1CCN(c2ccc(-c3ccc4[nH]c(=O)c(-c5ccc(C(=O)N6CCOCC6)cc5)cc4c3)cc2)CC1 [Example 55, 3-[4-(morpholine-4-carbonyl)phenyl]-6-{4-[4-(propan-2-yl)piperazin-1-yl]phenyl}-1,2-dihydroquinolin-2-one] | ≥ 50 | ≥ 50 | 0.382
9 | CC(C)N1CCN(c2ccc(-c3ccc4[nH]c(=O)c(-c5ccc(N6CCCC6=O)cc5)cc4c3)cc2)CC1 [Example 56, 3-[4-(2-oxopyrrolidin-1-yl)phenyl]-6-{4-[4-(propan-2-yl)piperazin-1-yl]phenyl}-1,2-dihydroquinolin-2-one] | 5.98 | ≥ 50 | 0.4

The next compounds have a lower IC50 (human TLR7) than those just listed; values first:

Row | IC50 (human TLR7) [µM] | IC50 (human TLR8) [µM] | IC50 (human TLR9) [µM] | SMILES
10 | 5.02 | ≥ 50 | 0.553 | COc1ccc(-c2cc3cc(-c4ccc(N5CCN(C(C)C)CC5)cc4)ccc3[nH]c2=O)cc1OC [Example 43, 3-(3,4-dimethoxyphenyl)-6-{4-[4-(propan-2-yl)piperazin-1-yl]phenyl}-1,2-dihydroquinolin-2-one]
11 | 2.15 | 6.88 | 1.16 | CC(C)N1CCN(c2ccc(-c3ccc4[nH]c(=O)c(-c5cn(C)c6ccccc56)cc4c3)cc2)CC1 [Example 48, 3-(1-methyl-1H-indol-3-yl)-6-(4-[4-(propan-2-yl)piperazin-1-yl]phenyl}-1,2-dihydroquinolin-2-one]
12 | 5.42 | ≥ 50 | 0.239 | CNC(=O)Nc1ccc(-c2cc3cc(-c4ccc(N5CCN(C(C)C)CC5)cc4)ccc3[nH]c2=O)cc1 [Example 49, 3-methyl-1-[4-(2-oxo-6-{4-[4-(propan-2-yl)piperazin-1-yl]phenyl}-1,2-dihydroquinolin-3-yl)phenyl]urea]
13 | 1.34 | 47 | 0.242 | CC(C)N1CCN(c2ccc(-c3ccc4[nH]c(=O)c(-c5ccc(N(C)C6CN(C)C6)cc5)cc4c3)cc2)CC1 [Example 51, 3-{4-[methyl(1-methylazetidin-3-yl)amino]phenyl}-6-{4-[4-(propan-2-yl)piperazin-1-yl]phenyl}-1,2-dihydroquinolin-2-one]
14 | 4.52 | 1.24 | 0.257 | CC(C)N1CCN(c2ccc(-c3ccc4[nH]c(=O)c(-c5ccc(C(N)=O)cc5)cc4c3)cc2)CC1 [Example 53, 4-(2-oxo-6-{4-[4-(propan-2-yl)piperazin-1-yl]phenyl}-1,2-dihydroquinolin-3-yl)benzamide]
